Values after ≈ are worked out from the molar mass of the structure shown. Where two headings read alike, the source gives them in different places. Where no end group is shown, it is not given here.
How the values were obtained:
[1] = tested on: P.aeruginosa 337005; format: cell-based, Pseudomonas aeruginosa
Procedure: (§1) The reference strains P. aeruginosa 337005, S. aureus 1882 and ETEC K88 were cultivated at 37 °C for 12 h. […] Then, 180 µL MH broth per well were added to the microtiter plate (Corning, Corning, NY, USA), and then 2 µL of the diluted bacterial solution was dispensed into each well. Peptides were then serially diluted with Milli-Q water, and 20 µL dilutions were added to the wells. Then, 2 µL Milli-Q water instead of 2 µL diluted bacterial solution was used as a blank control, and 20 µL Milli-Q water instead of 20 µL peptide dilution was used as a growth control. After culturing for 12 h at 37 °C, the MIC of the reference strain was observed, and the experiment was performed in three independent replicates.

[2] = tested on: ETEC K88; assay: Scanning electron microscopy of treated bacteria; format: cell-based, Enterotoxigenic Escherichia coli
Procedure: Scanning electron microscopy (SEM) was used to observe the damage of CLP to bacterial cell membranes. ETEC K88 was incubated at 37 °C for 12 h and then diluted with PBS to 5 × 10^5 CFU/mL. […] The CLP-treated ETEC K88 was washed with PBS and treated with 2.5% glutaraldehyde overnight. After dehydrating with alcohol and drying for gold coating, the samples were imaged by Quanta 200 (FEI).

[3] = tested on: S. aureus 1882; format: cell-based, Staphylococcus aureus
Procedure: as §1

[4] = tested on: ETEC K88; assay: Inhibition zone, Kirby–Bauer diffusion method; format: cell-based, Enterotoxigenic Escherichia coli; conditions: 50 µL on filter disk, 37 °C, 12 h, compared to PBS control and SUMO-TEV-CLP, n = 3
Procedure: (§2) ETEC K88 was used as a reference strain. […] The experiment was performed in three independent replicates.

[5] = tested on: ETEC K88; assay: Thermal stability, antibacterial activity by inhibition zone; format: physicochemical, Enterotoxigenic Escherichia coli; conditions: for Antimicrobial activity after heat treatment: n = 3
Procedure: as §2
(§3) The reference strain was ETEC K88.

[6] = tested on: P. aeruginosa 337005, S. aureus 1882 and ETEC K88; format: cell-based
Procedure: as §1

[7] = tested on: ETEC K88; assay: pH stability, antibacterial activity by inhibition zone; format: physicochemical, Enterotoxigenic Escherichia coli; conditions: pH 4.0 to 9.0, 2 h, n = 3
Procedure: as §2, §3

[8] = tested on: ETEC K88; assay: Propidium iodide uptake (membrane permeabilization); format: cell-based, Enterotoxigenic Escherichia coli; conditions: 100% = 0.05% SDS, average of 3 replicates
Procedure: PI can stain DNA, but cannot penetrate the complete cell membrane. Therefore, the fluorescence intensity of PI is positively correlated with the degree of cell membrane damage. The reference strain ETEC K88 was cultured at 37 °C for 12 h, and then diluted to 5 × 10^5 CFU/mL. Then, 10 µg/mL PI (Thermo Fisher, Waltham, MH, USA) was added to the diluted bacterial solution. […] The fluorescence intensity was measured using a microplate reader (Synergy H1, Bio Tek, Winooski, VT, USA) at the excitation wavelength and emission wavelength of 535 nm and 617 nm, respectively. During the continued 120 min reaction, the fluorescence values were monitored every 10 min. The PBS was a negative control, and 0.05% SDS was a positive control.

[9] = tested on: human erythrocytes; conditions: 90 µg/mL; cited from earlier work
Source text: The low hemolytic activity of antimicrobial peptides on mammalian red blood cells is very important in clinical applications.

[10] = tested on: ETEC K88; assay: MIC, microbroth dilution; format: cell-based, Enterotoxigenic Escherichia coli; conditions: micro-dilution in MH broth, 37 °C, 12 h, three independent replicates
Procedure: as §1

[11] = micro-dilution in MH broth, 37 °C, 12 h, three independent replicates
[12] = range over P. aeruginosa 337005, S. aureus 1882, ETEC K88

With “KWKLFKKIIGKEFKRIVQRIKDFLRNLVPRTERKDVT [rCLP]” the MIC ([1]; 337005, 12 h) was 2 µg/mL, the “Membrane morphology by SEM” value [2] was “damaged the integrity of the bacterial cell membrane” and the MIC ([3]; 1882, 12 h) was 8 µg/mL. The “Inhibition zone against ETEC K88” value [4] was “significantly inhibited the growth”, the “Antimicrobial activity after heat treatment” value ([5]; 70 °C for 30 min) was “almost completely retained” and the “Antimicrobial activity after heat treatment” value ([5]; temperatures above 70 °C (up to 100 °C), 30 min) was “significantly reduced the activity”. The “MICs for all the three reference strains (range)” value (“MICs” below) ([6]; 12 h) was 2 to 8 µg/mL, the “Activity maintained throughout pH range” value [7] was “more than 74.8%” and the “Increase of PI fluorescence uptake” value ([8]; 0.5 × MIC (1 µg/mL), 50 min) was 16.0%. The “Increase of PI fluorescence uptake” value ([8]; 0.5 × MIC (1 µg/mL), 120 min) was 51.5%, the “Increase of PI fluorescence uptake” value ([8]; 2 × MIC (4 µg/mL), 50 min) was 83.3% and the “Increase of PI fluorescence uptake” value ([8]; 2 × MIC (4 µg/mL), 120 min) was 97.0%.

For `CC[C@H](C)[C@H](NC(=O)[C@H](CCCCN)NC(=O)[C@H](CCC(=O)O)NC(=O)[C@H](CCCCN)NC(=O)[C@H](CO)NC(=O)[C@H](CCCCN)NC(=O)[C@H](CCCNC(=N)N)NC(=O)[C@H](Cc1ccccc1)NC(=O)[C@H](Cc1ccccc1)NC(=O)[C@H](CC(=O)O)NC(=O)CNC(=O)[C@H](CC(C)C)NC(=O)[C@@H](N)CC(C)C)C(=O)NCC(=O)N[C@@H](CCCCN)C(=O)N[C@@H](CCC(=O)O)C(=O)N[C@@H](Cc1ccccc1)C(=O)N[C@@H](CCCCN)C(=O)N[C@@H](CCCNC(=N)N)C(=O)N[C@H](C(=O)N[C@H](C(=O)N[C@@H](CCC(N)=O)C(=O)N[C@@H](CCCNC(=N)N)C(=O)N[C@H](C(=O)N[C@@H](CCCCN)C(=O)N[C@@H](CC(=O)O)C(=O)N[C@@H](Cc1ccccc1)C(=O)N[C@@H](CC(C)C)C(=O)N[C@@H](CCCNC(=N)N)C(=O)N[C@@H](CC(N)=O)C(=O)N[C@@H](CC(C)C)C(=O)N[C@H](C(=O)N1CCC[C@H]1C(=O)N[C@@H](CCCNC(=N)N)C(=O)N[C@H](C(=O)N[C@@H](CCC(=O)O)C(=O)N[C@@H](CO)C(=O)O)[C@@H](C)O)C(C)C)[C@@H](C)CC)C(C)C)[C@@H](C)CC` [LL37], the Hemolysis [9] is given as “about 30%”, the MIC [10] is given as 16 µg/mL (≈ 3.56 µM) and the MIC [1, 11] is given as 32 µg/mL (≈ 7.12 µM). The MIC [3, 11] was 32 µg/mL (≈ 7.12 µM) and the “MICs” value [6, 12] was 16 to 32 µg/mL.

In the case of RKDVY [TP5], the “MICs” value [6, 12] is reported as “over 512 µg/mL”.

For “KWKLFKKIIGKEFKRIVQRIKDFLRNLVPRTERKDVT [sCLP]”, the MIC ([1]; 337005, 12 h) was 2 µg/mL, the MIC ([3]; 1882, 12 h) was 8 µg/mL and the “Stability compared with recombinant CLP” value ([5]; same temperature, pH value and enzyme treatment) was “almost the same stability”.

Source: article PMC8659006 (Molecules, 2021)
